The record followed here is US20230124087A1, “KV3 ENHANCERS FOR THE TREATMENT OF COGNITIVE DISORDERS” (Hoffmann-La Roche Inc., priority 2020, published 2023).

Each structure is given as a SMILES string.

In one experiment the target is T1, Kv3.1 (Homo sapiens, UniProt P48547).
T1 construct: expressed in transfected cells
T1 sequence (P48547 1-511): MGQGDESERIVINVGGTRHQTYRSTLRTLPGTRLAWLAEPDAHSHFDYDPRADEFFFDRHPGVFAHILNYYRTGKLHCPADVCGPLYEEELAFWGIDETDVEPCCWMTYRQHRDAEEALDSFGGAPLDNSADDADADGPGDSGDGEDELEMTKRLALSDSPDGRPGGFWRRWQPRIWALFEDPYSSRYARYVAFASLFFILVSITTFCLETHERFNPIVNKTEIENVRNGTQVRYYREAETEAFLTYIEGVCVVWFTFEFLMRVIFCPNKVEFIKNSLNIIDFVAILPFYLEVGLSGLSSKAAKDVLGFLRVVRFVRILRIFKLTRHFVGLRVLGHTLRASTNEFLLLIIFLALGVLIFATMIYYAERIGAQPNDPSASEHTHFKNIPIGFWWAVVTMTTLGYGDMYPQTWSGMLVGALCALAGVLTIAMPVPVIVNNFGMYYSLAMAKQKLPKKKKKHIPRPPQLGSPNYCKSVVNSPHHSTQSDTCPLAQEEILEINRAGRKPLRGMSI
The experiment can be described thus: Kv3.1 automated patch clamp (Qube) cellular electrophysiology assay. The experiment is classed as cell-based.
Conditions: not given
An excerpt:
In vitro, high-throughput cellular electrophysiology was employed to detect voltage-dependence of compounds in single concentration screening and IC50 determination for library and medicinal chemistry profiling compounds in 384 well plates.
HEK-293 cell lines stably expressing coding DNA for Kv3.1, 3.2, 3.3, and 3.4 were validated on an automated patch clamp (APC) platform, Qube from Sophion/Denmark. Cell cultures were maintained in DMEM cell growth media containing FBS and appropriate antibiotics at 37° C., 5% CO2 for a maximum of 20 passages. Intra- and extracellular (w. glucose) HEPES buffers containing various monovalent and divalent cations were adjusted to pH 7.2 and 7.4 respectively. Cells were harvested at 75% confluency and resuspended in extracellular buffer and added to wells. Negative pressure was applied to establish whole cell recording by APC.
Currents through activated channels were measured directly by APC by employing depolarization voltage steps. Baseline currents were established for the voltage-dependence protocols using a −80 mV holding potential and multiple test pulses at +10 mV or by 10 mV steps from −80 mV to +40 mV, respectively. Test compounds were added after baseline recordings followed by a 10 min incubation, and voltage-dependency protocol recordings. Data was corrected for baseline and leak currents (well based) and normalized for % potentiation (plate based). Two previously reported Kv3 positive modulators of varying potencies were used for run to run and plate to plate quality controls. A non-selective and potent positive modulator was used as a positive control. Percent potentiation was analyzed at −20 mV of the voltage-dependency protocol and voltage shift in channel activation was analyzed using the voltage step protocol from −80 mV to +40 mV. Selectivity was assessed against Kv3.2, Kv3.3, and Kv3.4 overexpressing cell lines using similar methods.
(In patch-clamp work, channel activity is measured electrically.)
Turning to `COc1cc(Oc2ccc(-n3c(=O)[nH]c4cccnc43)cn2)ccc1C` [Example 33, 3-[6-(3-methoxy-4-methyl-phenoxy)-3-pyridyl]-1H-imidazo[4,5-b]pyridin-2-one], the EC50 (as a rule, the midpoint of the concentration-response curve) stood at 3.4 µM.
On to `COc1cc(Oc2ccc(-n3c(=O)[nH]c4ccccc43)cn2)ccc1C` [Example 34, 3-[6-(3-methoxy-4-methyl-phenoxy)-3-pyridyl]-1H-benzimidazol-2-one], for which the EC50 was determined as 5.2 µM.
For the molecule `Cc1ccc(Oc2ccc(-n3c(=O)[nH]c4cccnc43)cn2)cc1F` [Example 35, 3-[6-(3-fluoro-4-methyl-phenoxy)-3-pyridyl]-1H-imidazo[4,5-b]pyridin-2-one], the EC50 was 3.6 µM.
The same measure, in the same setting: to `Cc1ccc(Oc2ccc(-n3c(=O)[nH]c4cccnc43)cn2)c(F)c1` [Example 36, 3-[6-(2-fluoro-4-methyl-phenoxy)-3-pyridyl]-1H-imidazo[4,5-b]pyridin-2-one] belongs 4.3 µM.
Still for that read-out and setting: to `Cc1cc(C#N)ccc1Oc1ccc(-n2c(=O)[nH]c3cccnc32)cn1` [Example 37, 3-methyl-4-[[5-(2-oxo-1H-imidazo[4,5-b]pyridin-3-yl)-2-pyridyl]oxy]benzonitrile] belongs 6 µM.
The same measure, in the same setting: to `Cc1cc(C#N)cc(C)c1Oc1ccc(-n2c(=O)[nH]c3cccnc32)cn1` [Example 38, 3,5-dimethyl-4-[[5-(2-oxo-1H-imidazo[4,5-b]pyridin-3-yl)-2-pyridyl]oxy]benzonitrile] belongs 5.2 µM; to `COc1cc(C)ccc1Oc1ccc(-n2c(=O)[nH]c3cccnc32)cn1` [Example 39, 3-[6-(2-methoxy-4-methyl-phenoxy)-3-pyridyl]-1H-imidazo[4,5-b]pyridin-2-one], 5 µM.
As for `N#Cc1ccc(Oc2ccc(-n3c(=O)[nH]c4cccnc43)cn2)c(C(F)(F)F)c1` [Example 40, 4-[[5-(2-oxo-1H-imidazo[4,5-b]pyridin-3-yl)-2-pyridyl]oxy]-3-(trifluoromethyl)benzonitrile], the EC50 amounted to 6.6 µM.
Same read-out and setting: to `COc1cc(Oc2ccc(-n3c(=O)[nH]c4cccnc43)cn2)cnc1C` [Example 41, 3-[6-[(5-methoxy-6-methyl-3-pyridyl)oxy]-3-pyridyl]-1H-imidazo[4,5-b]pyridin-2-one] belongs 16.4 µM.
Same read-out and setting: then `Cc1ccc(Oc2ccc(-n3c(=O)[nH]c4cnccc43)cn2)cc1Cl` [Example 42, 1-[6-(3-chloro-4-methyl-phenoxy)-3-pyridyl]-3H-imidazo[4,5-c]pyridin-2-one], with 10 µM; and `COc1cc(Oc2ccc(-n3c(=O)[nH]c4cncnc43)cn2)ccc1C` [Example 43, 9-[6-(3-methoxy-4-methyl-phenoxy)-3-pyridyl]-7H-purin-8-one], with 7.4 µM.
Same read-out and setting: to `COc1cc(Oc2ncc(-n3c(=O)[nH]c4cnccc43)cc2F)ccc1C` [Example 44, 1-[5-fluoro-6-(3-methoxy-4-methyl-phenoxy)-3-pyridyl]-3H-imidazo[4,5-c]pyridin-2-one] belongs 2.9 µM; to `COc1cc(Oc2ncc(-n3c(=O)[nH]c4cnccc43)cc2C)ccc1C` [Example 45, 1-[5-methyl-6-(3-methoxy-4-methyl-phenoxy)-3-pyridyl]-3H-imidazo[4,5-c]pyridin-2-one], 3.1 µM; to `COc1cc(Oc2ncc(-n3c(=O)[nH]c4cccnc43)cc2C)ccc1C` [Example 46, 3-[6-(3-methoxy-4-methyl-phenoxy)-5-methyl-3-pyridyl]-1H-imidazo[4,5-b]pyridin-2-one], 4 µM.
Consider `COc1cc(Oc2ccc(-n3c(=O)[nH]c4nccnc43)cn2)ccc1C` [Example 48, 3-[6-(3-methoxy-4-methyl-phenoxy)-3-pyridyl]-1H-imidazo[4,5-b]pyrazin-2-one], for which the EC50 was 3.9 µM.

Still in this experiment, the particulars now being: HEK-293 cell line stably expressing Kv3.1; automated patch clamp; 10 min incubation; read-out: EC50 Kv3.1.
With `Cc1ccc(Oc2ccc(-n3c(=O)[nH]c4cnccc43)cn2)cc1OC(F)(F)F` [Example 47, 1-[6-[4-methyl-3-(trifluoromethoxy)phenoxy]-3-pyridyl]-3H-imidazo[4,5-c]pyridin-2-one], the EC50 was determined as 2.4 µM.
